From patent publication US4557930A, “Anticholesteremic anion exchange resins” (Mitsubishi Petrochemical Co., Ltd., priority 1983, dated 1985) come the findings set out here.

This experiment relates to descending aorta; plasma lipids. The experiment can be described thus: In vivo test by rabbit (arteriosclerosis inhibition test): plasma lipids and aorta. On the set-up: species or system rabbit (New Zealand). The source says: Eight to fourteen male New Zealand species rabbits, weighing about 2.2 Kg, were used per each group. To the first group of rabbits was given 40 g/Kg-body weight/day of a mixture of a feed produced by Oriental Yeast Co. mixed with 0.67% of cholesterol for 12 weeks, and to the rabbits of the second and third groups were further given CR - 1 and Clofibrate, respectively.
CR - 1 and Clofibrate employed was mixed in the feed at levels of 1.25% and 0.25%, respectively.
During the tests, the plasma lipid concentrations were measured, and after 12 weeks, all the rabbits were sacrificed by bleeding. Descending aorta were subjected to incision and the conditions of arteriosclerosis were observed.

Setting [1] is: 0.67% cholesterol intake, 6 weeks, CR - 1 1.25%, Clofibrate 0.25% in feed.
Where [2] appears, read: 0.67% cholesterol intake, 12 weeks, CR - 1 1.25%, Clofibrate 0.25% in feed.

For the compound `CCOC(=O)C(C)(C)Oc1ccc(Cl)cc1` [Clofibrate], under setting [1], the “Total plasma: Cholesterol” value was 1810 ± 124 mg/dL, the “Total plasma: Triglyceride” value came out at 337.1 ± 66.1 mg/dL and the “Total plasma: β-Lipoprotein” value was determined as 5038 ± 450 mg/dL. Also, under setting [2], the “Aorta: Area of blood vessel at arteriosclerosis” value stood at 8.0 ± 1.4 cm^2, the “Aorta: Inhibition of arteriosclerosis” value was 18.0%, the “Aorta: Total area” value is reported as 17.7 ± 0.5 cm^2 and the “Total plasma: Cholesterol” value came out at 1895 ± 117 mg/dL. For the same compound, under setting [2], the “Total plasma: Triglyceride” value is 336.8 ± 39.7 mg/dL and the “Total plasma: β-Lipoprotein” value is 4385 ± 574 mg/dL. For the same compound, the “Aorta: Percentage of arteriosclerosis” value ((Area at arteriosclerosis)/(Total blood vessel area) × 100, 0.67% cholesterol intake, 12 weeks) was 44.2 ± 7.0%.
